Experiments:
[1] = test system: SIV pseudotyped with the SARS-CoV-2 spike protein (Beta); settings: SIV pseudotyped with the spike protein (Beta, 48 h)
[2] = test system: ACE2–RBD interaction (Omicron variant RBD-Fc / His-tagged hACE2); type: biochemical, SARS-CoV-2; settings: read-out: Inhibition of ACE2–RBD Interaction
[3] = test system: SIV pseudotyped with the SARS-CoV-2 spike protein (Omicron); settings: SIV pseudotyped with the spike protein (Omicron, 48 h)
[4] = test system: SIV pseudotyped with the SARS-CoV-2 spike protein (Alpha); settings: SIV pseudotyped with the spike protein (Alpha, 48 h)
[5] = test system: SIV pseudotyped with the SARS-CoV-2 spike protein (Delta); settings: SIV pseudotyped with the spike protein (Delta, 48 h)
[6] = test system: SIV pseudotyped with the SARS-CoV-2 spike protein (wt); settings: SIV pseudotyped with the spike protein (wt, 48 h)
[7] = test system: pseudovirus with wt SARS-CoV-2 spike carrying E484K + N501Y
[8] = test system: pseudovirus with wt SARS-CoV-2 spike carrying K417N

| Compound | IC50 [1] | IC50 [2] | IC50 [3] | IC50 [4] | IC50 [5] | IC50 [6] | Reduction in inhibitory activity (virus neutralization) by combination of E484K and N501N [7] | Decrease of susceptibility of the virus to inhibition by mutation K417N, factor [8] |
| --- | --- | --- | --- | --- | --- | --- | --- | --- |
| CC[C@H](C)[C@H](NC(=O)[C@H](CC(C)C)NC(=O)[C@H](CC(=O)O)NC(=O)[C@H](CO)NC(=O)[C@@H](NC(=O)[C@H](CCCNC(=N)N)NC(=O)[C@H](CCSC)NC(=O)[C@H](CO)NC(=O)[C@H](C)NC(=O)[C@H](CCC(=O)O)NC(=O)[C@H](C)NC(=O)[C@H](Cc1c[nH]cn1)NC(=O)CNC(=O)[C@H](CC(C)C)NC(=O)[C@H](CCC(=O)O)NC(=O)[C@H](CC(=O)O)NC(=O)[C@H](CC(C)C)NC(=O)[C@H](CC(C)C)NC(=O)[C@H](CCCNC(=N)N)NC(=O)[C@H](CCSC)NC(=O)[C@@H](NC(=O)[C@H](CCC(=O)O)NC(=O)[C@H](Cc1ccc(O)cc1)NC(=O)[C@@H](NC(=O)[C@H](CCCCN)NC(=O)[C@H](CCC(N)=O)NC(=O)[C@H](CC(C)C)NC(=O)[C@@H](NC(=O)[C@H](Cc1c[nH]c2ccccc12)NC(=O)[C@H](CCC(=O)O)NC(=O)[C@H](CCCCN)NC(=O)[C@H](CC(=O)O)NC(=O)COCCOCCNC(=O)CCCC[C@@H]1SC[C@@H]2NC(=O)N[C@@H]21)[C@@H](C)CC)[C@@H](C)CC)[C@@H](C)CC)C(C)C)C(=O)N[C@@H](Cc1ccc(O)cc1)C(=O)N[C@@H](CCC(=O)O)C(=O)N[C@@H](Cc1ccccc1)C(=O)N[C@@H](CCSC)C(=O)N[C@@H](CCCCN)C(=O)N[C@@H](CCCCN)C(=O)NCC(N)=O [LW25.1] | > 500 nM | […] | > 500 nM | 8.38 ± 3.31 nM | 0.71 ± 0.23 nM | 1.7 ± 0.11 nM |  |  |
| CC[C@H](C)[C@H](NC(=O)[C@H](CC(C)C)NC(=O)[C@H](CC(=O)O)NC(=O)[C@H](CO)NC(=O)[C@@H](NC(=O)[C@H](CCCNC(=N)N)NC(=O)[C@H](CCSC)NC(=O)[C@H](CO)NC(=O)[C@H](C)NC(=O)[C@H](CCC(=O)O)NC(=O)[C@H](C)NC(=O)[C@H](Cc1c[nH]cn1)NC(=O)CNC(=O)[C@H](CC(C)C)NC(=O)[C@H](CCC(=O)O)NC(=O)[C@H](CC(=O)O)NC(=O)[C@H](CC(C)C)NC(=O)[C@H](CC(C)C)NC(=O)[C@H](CCCNC(=N)N)NC(=O)[C@H](CCSC)NC(=O)[C@@H](NC(=O)[C@H](CCC(=O)O)NC(=O)[C@H](Cc1ccc(O)cc1)NC(=O)[C@@H](NC(=O)[C@H](CCCCN)NC(=O)[C@H](CCC(N)=O)NC(=O)[C@H](CC(C)C)NC(=O)[C@@H](NC(=O)[C@H](Cc1c[nH]c2ccccc12)NC(=O)[C@H](CCC(=O)O)NC(=O)[C@H](CCCCN)NC(=O)[C@H](CC(=O)O)NC(=O)COCCOCCNC(=O)COCCOCCNC(=O)CCCC[C@@H]1SC[C@@H]2NC(=O)N[C@@H]21)[C@@H](C)CC)[C@@H](C)CC)[C@@H](C)CC)C(C)C)C(=O)N[C@@H](Cc1ccc(O)cc1)C(=O)N[C@@H](CCC(=O)O)C(=O)N[C@@H](Cc1ccccc1)C(=O)N[C@@H](CCSC)C(=O)N[C@@H](CCCCN)C(=O)N[C@@H](CCCCN)C(=O)NCC(=O)N[C@@H](CC(=O)O)C(=O)N[C@@H](CCC(=O)O)C(=O)N[C@@H](CCCNC(=N)N)C(=O)N[C@@H](CC(C)C)C(=O)N[C@@H](CC(C)C)C(=O)N[C@@H](CCC(=O)O)C(=O)N[C@@H](CCC(=O)O)C(=O)N[C@@H](C)C(=O)N[C@@H](CCC(=O)O)C(=O)N[C@@H](CCCNC(=N)N)C(=O)N[C@@H](CC(C)C)C(=O)N[C@@H](CC(C)C)C(=O)N[C@@H](CCC(=O)O)C(=O)N[C@@H](CCC(=O)O)C(=O)N[C@H](C(=O)N[C@@H](CCC(=O)O)C(N)=O)C(C)C [LW25.3] | > 500 nM |  | > 500 nM | 13.3 ± 4.55 nM | 4.52 ± 0.43 nM | 5.94 ± 4.17 nM |  |  |
| CC[C@H](C)[C@@H]1NC(=O)[C@H](CC(C)C)NC(=O)[C@H](CC(=O)O)NC(=O)[C@H](CO)NC(=O)[C@H](C(C)C)NC(=O)[C@H](CCCNC(=N)N)NC(=O)[C@H](CCSC)NC(=O)[C@H](CO)NC(=O)[C@H](C)NC(=O)[C@H](CCC(=O)O)NC(=O)[C@H](C)NC(=O)[C@H](Cc2c[nH]cn2)NC(=O)CNC(=O)[C@H](CC(C)C)NC(=O)[C@H](CCC(=O)O)NC(=O)[C@H](CC(=O)O)NC(=O)[C@H](CC(C)C)NC(=O)[C@H](CC(C)C)NC(=O)[C@H](CCCNC(=N)N)NC(=O)[C@H](CCSC)NC(=O)[C@H]([C@@H](C)CC)NC(=O)[C@H](CCC(=O)O)NC(=O)[C@H](Cc2ccc(O)cc2)NC(=O)[C@H]([C@@H](C)CC)NC(=O)[C@H](CCCCN)NC(=O)[C@H](CCC(N)=O)NC(=O)[C@H](CC(C)C)NC(=O)[C@H]([C@@H](C)CC)NC(=O)[C@H](Cc2c[nH]c3ccccc23)NC(=O)[C@H](CCC(=O)O)NC(=O)[C@@H](NC(=O)COCCOCCNC(=O)CCCC[C@@H]2SC[C@@H]3NC(=O)N[C@@H]32)CSSC[C@@H](C(N)=O)NC(=O)[C@H](CCCCN)NC(=O)[C@H](CCCCN)NC(=O)[C@H](CCSC)NC(=O)[C@H](Cc2ccccc2)NC(=O)[C@H](CCC(=O)O)NC(=O)[C@H](Cc2ccc(O)cc2)NC1=O [LW25.13] | > 500 nM | […] | > 500 nM | 1.35 ± 0.08 nM | 0.68 ± 0.12 nM | 0.63 ± 0.24 nM | approximately three |  |
| CC[C@H](C)[C@H](NC(=O)[C@H](CC(C)C)NC(=O)[C@H](CC(=O)O)NC(=O)[C@H](CO)NC(=O)[C@@H](NC(=O)[C@H](CCCNC(=N)N)NC(=O)[C@H](CCSC)NC(=O)[C@H](CO)NC(=O)[C@H](C)NC(=O)[C@H](CCC(=O)O)NC(=O)[C@H](C)NC(=O)[C@H](Cc1c[nH]cn1)NC(=O)CNC(=O)[C@H](CC(C)C)NC(=O)[C@H](CCC(=O)O)NC(=O)[C@H](CC(=O)O)NC(=O)[C@H](CC(C)C)NC(=O)[C@H](CC(C)C)NC(=O)[C@H](CCCNC(=N)N)NC(=O)[C@H](CCSC)NC(=O)[C@@H](NC(=O)[C@H](CCC(=O)O)NC(=O)[C@H](Cc1ccc(O)cc1)NC(=O)[C@@H](NC(=O)[C@H](CCCCN)NC(=O)[C@H](CCC(N)=O)NC(=O)[C@H](CC(C)C)NC(=O)[C@@H](NC(=O)[C@H](Cc1c[nH]c2ccccc12)NC(=O)[C@H](CCC(=O)O)NC(=O)[C@H](CCCCN)NC(=O)[C@H](CC(=O)O)NC(=O)COCCOCCNC(=O)CCCC[C@@H]1SC[C@@H]2NC(=O)N[C@@H]21)[C@@H](C)CC)[C@@H](C)CC)[C@@H](C)CC)C(C)C)C(=O)N[C@@H](Cc1ccc(O)cc1)C(=O)N[C@@H](CCC(=O)O)C(=O)N[C@@H](Cc1ccccc1)C(=O)N[C@@H](CCSC)C(=O)N[C@@H](CCCCN)C(N)=O [LW32.2] | > 500 nM | […] | > 500 nM | 6.15 ± 5.96 nM | 1.54 ± 0.23 nM | 0.93 ± 0.24 nM | nine | 25 |
| CC[C@H](C)[C@H](NC(=O)[C@H](CC(C)C)NC(=O)[C@H](CC(=O)O)NC(=O)[C@H](CO)NC(=O)[C@@H](NC(=O)[C@H](CCCNC(=N)N)NC(=O)[C@H](CCSC)NC(=O)[C@H](CO)NC(=O)[C@H](C)NC(=O)[C@H](CCC(=O)O)NC(=O)[C@H](C)NC(=O)[C@H](Cc1c[nH]cn1)NC(=O)CNC(=O)[C@H](CC(C)C)NC(=O)[C@H](CCC(=O)O)NC(=O)[C@H](CC(=O)O)NC(=O)[C@H](CC(C)C)NC(=O)[C@H](CC(C)C)NC(=O)[C@H](CCCNC(=N)N)NC(=O)[C@H](CCSC)NC(=O)[C@@H](NC(=O)[C@H](CCC(=O)O)NC(=O)[C@H](Cc1ccc(O)cc1)NC(=O)[C@@H](NC(=O)[C@H](CCCCN)NC(=O)[C@H](CCC(N)=O)NC(=O)[C@H](CC(C)C)NC(=O)[C@@H](NC(=O)[C@H](Cc1c[nH]c2ccccc12)NC(=O)[C@H](CCC(=O)O)NC(=O)[C@H](CCCCN)NC(=O)[C@H](CC(=O)O)NC(=O)COCCOCCNC(=O)CCCC[C@@H]1SC[C@@H]2NC(=O)N[C@@H]21)[C@@H](C)CC)[C@@H](C)CC)[C@@H](C)CC)C(C)C)C(=O)N[C@@H](Cc1ccc(O)cc1)C(=O)N[C@@H](CCC(=O)O)C(=O)N[C@@H](Cc1ccccc1)C(N)=O [LW32.4] | > 500 nM | […] | > 500 nM | > 500 nM | 10.2 ± 1.78 nM | 11.8 ± 3.5 nM |  |  |

From PMC9181698 (International Journal of Molecular Sciences, 2022)
